Experimental data reported in US6479435B1, “Diaryl ethers and processes for their preparation and herbicidal and desiccant compositions containing them” (ISK Americas Incorporated, priority 1997, dated 2002).

Legend:
Format in all cases: in vivo
[1] = test system: Johnsongrass (Sorghum halepense, SORHA); assay: Pre-emerge greenhouse herbicide test, phytotoxicity rating; conditions: 14 days after application, rating scale 0-100
In short: (§1)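 Visual 0–100 injury rating (100 = all plants dead) taken 14 days after treatment. Rates of 125–1000 g ai/ha in acetone, 187 l/ha, were sprayed onto soil one day post-sowing; pots were surface-watered to incorporate, then bottom-watered.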

[2] = test system: barnyardgrass (Echinochloa crusgalli, ECHCG); assay: as above; conditions: 14 days after application, rating scale 0-100
In short: as §1

[3] = test system: common ragweed (Ambrosia artemisiifolia L., AMBEL); assay: as above; conditions: 14 days after application, rating scale 0-100
In short: as §1

[4] = test system: green foxtail (Setaria viridis, SETVI); assay: as above; conditions: 14 days after application, rating scale 0-100
In short: as §1

[5] = test system: ivyleaf morningglory (Ipomoea hederacea, IPOHE); assay: as above; conditions: 14 days after application, rating scale 0-100
In short: as §1

[6] = test system: lambsquarters (Chenopodium album, CHEAL); assay: as above; conditions: 14 days after application, rating scale 0-100
In short: as §1

[7] = test system: large crabgrass (Digitaria sanguinalis, DIGSA); assay: as above; conditions: 14 days after application, rating scale 0-100
In short: as §1

[8] = test system: redroot pigweed (Amaranthus retroflexus, AMARE); assay: as above; conditions: 14 days after application, rating scale 0-100
In short: as §1

[9] = test system: sicklepod (Cassia obtusifolia, CASOB); assay: as above; conditions: 14 days after application, rating scale 0-100
In short: as §1

[10] = test system: velvetleaf (Abutilon theophrasti, ABUTH); assay: as above; conditions: 14 days after application, rating scale 0-100
In short: as §1

[11] = test system: field corn (Zea mays L., var. Dekalb 535, CORN); assay: Pre-emerge greenhouse test, crop damage rating; conditions: 14 days after application, rating scale 0-100
In short: as §1

[12] = test system: upland rice (Oryza sp., var.Tebonnet, RICE); assay: Pre-emerge greenhouse test, crop damage rating; conditions: 14 days after application, rating scale 0-100
In short: as §1

[13] = test system: soybean (Glycine max L., var. Pella 86, SOY); assay: Pre-emerge greenhouse test, crop damage rating; design: key to SOY crop damage rating: 0 = no damage, 100 = complete death of all plants; conditions: 14 days after application, rating scale 0-100
In short: as §1

[14] = test system: common ragweed (Ambrosia artemisiifolia L., AMBEL); assay: Post-emerge greenhouse herbicide test, phytotoxicity rating; conditions: 14 days after application, scale 0-100
In short: (§2)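 Scores use a 0 (no damage) to 100 (complete kill) scale, taken 14 days after a foliar spray. Acetone solutions with 0.25% v/v non-ionic surfactant were applied by track sprayer at 187 l/ha and 63-1000 g ai/ha to bottom-watered 2-3 leaf plants.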

[15] = test system: Johnsongrass (Sorghum halepense, SORHA); assay: as above; conditions: 14 days after application, scale 0-100
In short: as §2

[16] = test system: barnyardgrass (Echinochloa crusgalli, ECHCG); assay: as above; conditions: 14 days after application, scale 0-100
In short: as §2

[17] = test system: green foxtail (Setaria viridis, SETVI); assay: as above; conditions: 14 days after application, scale 0-100
In short: as §2

[18] = test system: ivyleaf morningglory (Ipomoea hederacea, IPOHE); assay: as above; conditions: 14 days after application, scale 0-100
In short: as §2

[19] = test system: lambsquarters (Chenopodium album, CHEAL); assay: as above; conditions: 14 days after application, scale 0-100
In short: as §2

[20] = test system: large crabgrass (Digitaria sanguinalis, DIGSA); assay: as above; conditions: 14 days after application, scale 0-100
In short: as §2

[21] = test system: redroot pigweed (Amaranthus retroflexus, AMARE); assay: as above; conditions: 14 days after application, scale 0-100
In short: as §2

[22] = test system: sicklepod (Cassia obtusifolia, CASOB); assay: as above; conditions: 14 days after application, scale 0-100
In short: as §2

[23] = test system: velvetleaf (Abutilon theophrasti, ABUTH); assay: as above; conditions: 14 days after application, scale 0-100
In short: as §2

[24] = test system: field corn (Zea mays L., var. Dekalb 535, CORN); assay: Post-emerge greenhouse test, crop damage rating; conditions: 14 days after application, scale 0-100
In short: as §2

[25] = test system: upland rice (Oryza sp., var.Tebonnet, RICE); assay: Post-emerge greenhouse test, crop damage rating; conditions: 14 days after application, scale 0-100
In short: as §2

[26] = test system: soybean (Glycine max L., var. Pella 86, SOY); assay: Post-emerge greenhouse test, crop damage rating; design: key to crop damage rating SOY: 0-100 scale: 0 = no damage, 100 = complete death of all plants; conditions: 14 days after application, scale 0-100
In short: as §2

N#Cc1cccnc1Oc1cc(-n2c(=O)n3n(c2=S)CCCC3)c(F)cc1Cl [Compound 8-20]
80: ECHCG phytotoxicity rating ([2]; Rate 500 g al/ha)
0: phytotoxicity rating SETVI ([17]; rate 500 g ai/ha)
25: SOY crop damage rating ([13]; Rate 500 g al/ha)
95: SETVI phytotoxicity rating ([4]; Rate 125 g al/ha) | IPOHE phytotoxicity rating ([5]; Rate 125 g al/ha) | phytotoxicity rating CHEAL ([19]; rate 63 g ai/ha)
5: CORN crop damage rating ([11]; Rate 125 g al/ha)
90: SORHA phytotoxicity rating ([1]; Rate 500 g al/ha) | AMBEL phytotoxicity rating ([3]; Rate 125 g al/ha) | CASOB phytotoxicity rating ([9]; Rate 125 g al/ha) | phytotoxicity rating AMBEL ([14]; rate 63 g ai/ha) | phytotoxicity rating SORHA ([15]; rate 63 g ai/ha) | phytotoxicity rating CASOB ([22]; rate 63 g ai/ha) | crop damage rating SOY ([26]; rate 63 g ai/ha)
15: crop damage rating CORN ([24]; rate 63 g ai/ha) | crop damage rating RICE ([25]; rate 63 g ai/ha)
40: SORHA phytotoxicity rating ([1]; Rate 125 g al/ha) | DIGSA phytotoxicity rating ([7]; Rate 125 g al/ha) | RICE crop damage rating ([12]; Rate 500 g al/ha) | phytotoxicity rating ECHCG ([16]; rate 500 g ai/ha)
70: phytotoxicity rating SETVI ([17]; rate 63 g ai/ha)
60: ECHCG phytotoxicity rating ([2]; Rate 125 g al/ha) | crop damage rating RICE ([25]; rate 500 g ai/ha)
10: CORN crop damage rating ([11]; Rate 500 g al/ha)
20: RICE crop damage rating ([12]; Rate 125 g al/ha) | SOY crop damage rating ([13]; Rate 125 g al/ha) | phytotoxicity rating ECHCG ([16]; rate 63 g ai/ha) | crop damage rating CORN ([24]; rate 500 g ai/ha)
100: AMBEL phytotoxicity rating ([3]; Rate 500 g al/ha) | SETVI phytotoxicity rating ([4]; Rate 500 g al/ha) | IPOHE phytotoxicity rating ([5]; Rate 500 g al/ha) | CHEAL phytotoxicity rating ([6]; Rate 125 g al/ha) | CHEAL phytotoxicity rating ([6]; Rate 500 g al/ha) | DIGSA phytotoxicity rating ([7]; Rate 500 g al/ha) | AMARE phytotoxicity rating ([8]; Rate 125 g al/ha) | AMARE phytotoxicity rating ([8]; Rate 500 g al/ha) | CASOB phytotoxicity rating ([9]; Rate 500 g al/ha) | ABUTH phytotoxicity rating ([10]; Rate 125 g al/ha) | ABUTH phytotoxicity rating ([10]; Rate 500 g al/ha) | phytotoxicity rating AMBEL ([14]; rate 500 g ai/ha) | phytotoxicity rating SORHA ([15]; rate 500 g ai/ha) | phytotoxicity rating IPOHE ([18]; rate 63 g ai/ha) | phytotoxicity rating IPOHE ([18]; rate 500 g ai/ha) | phytotoxicity rating CHEAL ([19]; rate 500 g ai/ha) | phytotoxicity rating AMARE ([21]; rate 63 g ai/ha) | phytotoxicity rating AMARE ([21]; rate 500 g ai/ha) | phytotoxicity rating CASOB ([22]; rate 500 g ai/ha) | phytotoxicity rating ABUTH ([23]; rate 63 g ai/ha) | phytotoxicity rating ABUTH ([23]; rate 500 g ai/ha) | crop damage rating SOY ([26]; rate 500 g ai/ha)
30: phytotoxicity rating DIGSA ([20]; rate 63 g ai/ha) | phytotoxicity rating DIGSA ([20]; rate 500 g ai/ha)

N#Cc1ccc(Oc2cc(-n3c(=O)n4n(c3=S)CCCC4)c(F)cc2Cl)nc1 [Compound 8-22]
80: phytotoxicity rating AMBEL ([14]; rate 63 g ai/ha) | phytotoxicity rating IPOHE ([18]; rate 63 g ai/ha) | phytotoxicity rating CASOB ([22]; rate 500 g ai/ha)
30: ECHCG phytotoxicity rating ([2]; Rate 500 g al/ha) | phytotoxicity rating SORHA ([15]; rate 500 g ai/ha) | phytotoxicity rating ECHCG ([16]; rate 500 g ai/ha) | phytotoxicity rating DIGSA ([20]; rate 500 g ai/ha)
10: IPOHE phytotoxicity rating ([5]; Rate 500 g al/ha) | phytotoxicity rating ECHCG ([16]; rate 63 g ai/ha) | crop damage rating RICE ([25]; rate 500 g ai/ha)
100: AMBEL phytotoxicity rating ([3]; Rate 125 g al/ha) | AMBEL phytotoxicity rating ([3]; Rate 500 g al/ha) | SETVI phytotoxicity rating ([4]; Rate 500 g al/ha) | CHEAL phytotoxicity rating ([6]; Rate 125 g al/ha) | CHEAL phytotoxicity rating ([6]; Rate 500 g al/ha) | AMARE phytotoxicity rating ([8]; Rate 125 g al/ha) | AMARE phytotoxicity rating ([8]; Rate 500 g al/ha) | ABUTH phytotoxicity rating ([10]; Rate 125 g al/ha) | ABUTH phytotoxicity rating ([10]; Rate 500 g al/ha) | phytotoxicity rating AMBEL ([14]; rate 500 g ai/ha) | phytotoxicity rating IPOHE ([18]; rate 500 g ai/ha) | phytotoxicity rating CHEAL ([19]; rate 63 g ai/ha) | phytotoxicity rating CHEAL ([19]; rate 500 g ai/ha) | phytotoxicity rating AMARE ([21]; rate 500 g ai/ha) | phytotoxicity rating ABUTH ([23]; rate 63 g ai/ha) | phytotoxicity rating ABUTH ([23]; rate 500 g ai/ha)
70: SOY crop damage rating ([13]; Rate 500 g al/ha)
5: crop damage rating RICE ([25]; rate 63 g ai/ha)
65: crop damage rating SOY ([26]; rate 63 g ai/ha)
40: SETVI phytotoxicity rating ([4]; Rate 125 g al/ha) | IPOHE phytotoxicity rating ([5]; Rate 125 g al/ha) | RICE crop damage rating ([12]; Rate 500 g al/ha)
60: CORN crop damage rating ([11]; Rate 500 g al/ha)
95: phytotoxicity rating AMARE ([21]; rate 63 g ai/ha) | crop damage rating SOY ([26]; rate 500 g ai/ha)
53: crop damage rating CORN ([24]; rate 63 g ai/ha)
90: DIGSA phytotoxicity rating ([7]; Rate 500 g al/ha) | CASOB phytotoxicity rating ([9]; Rate 500 g al/ha)
15: crop damage rating CORN ([24]; rate 500 g ai/ha)
75: phytotoxicity rating SETVI ([17]; rate 500 g ai/ha)
50: SOY crop damage rating ([13]; Rate 125 g al/ha) | phytotoxicity rating CASOB ([22]; rate 63 g ai/ha)
20: SORHA phytotoxicity rating ([1]; Rate 500 g al/ha) | DIGSA phytotoxicity rating ([7]; Rate 125 g al/ha) | CASOB phytotoxicity rating ([9]; Rate 125 g al/ha) | phytotoxicity rating SETVI ([17]; rate 63 g ai/ha)
0: SORHA phytotoxicity rating ([1]; Rate 125 g al/ha) | ECHCG phytotoxicity rating ([2]; Rate 125 g al/ha) | CORN crop damage rating ([11]; Rate 125 g al/ha) | RICE crop damage rating ([12]; Rate 125 g al/ha) | phytotoxicity rating SORHA ([15]; rate 63 g ai/ha) | phytotoxicity rating DIGSA ([20]; rate 63 g ai/ha)
